Test results from patent publication US8017612B2, “Piperazine compound and use thereof as a HCV polymerase inhibitor” (priority 2006, dated 2011).

What was measured:
[1] = molecular target: T1, HCV polymerase (NS5B) type 1b (Hepatitis C virus genotype 1b, UniProt P26663); assay: Assay of enzyme (HCV polymerase) inhibitory activity, type 1b enzyme; type: biochemical, HCV BK strain (type 1b); conditions: HCV polymerase inhibitory activity (IC50), 1b, type 1b enzyme 0.5 μg/ml, 25° C., 60 min
T1 construct: a region encoding NS5B (J Virol 1991 March, 65(3), 1105-13, 544 amino acids after deletion of 47 amino acids on the C-terminal); 6xHis (C); made in house; host or cells: Escherichia coli
Summary of the method: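 IC50 derived from [3H]UTP incorporation into TCA-insoluble RNA, compared with and without test compound. Reaction (25 °C, 60 min, Tris pH 7.5, 5 mM MgCl2): E. coli-expressed 1b NS5B Δ47 with His tag at 0.5 μg/ml, 5 μg/ml run-off substrate RNA, ATP/GTP/CTP 50 μM, UTP 2 μM.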

[2] = molecular target: T2, HCV polymerase (NS5B) type 1a (Hepatitis C virus genotype 1a, UniProt P26664); assay: Assay of enzyme (HCV polymerase) inhibitory activity, type 1a enzyme; type: biochemical, HCV type 1a (cloned from the blood of patients); conditions: HCV polymerase inhibitory activity (IC50), 1a, type 1a enzyme 1.5 μg/ml, 25° C., 60 min
T2 construct: made in house; host or cells: Escherichia coli (by the 'similar method' of the 1b enzyme)
Summary of the method: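 Reactions ran 60 min at 25° C in 20 mM Tris-HCl pH 7.5, 5 mM MgCl2, 50 mM NaCl, holding genotype 1a NS5B (1.5 μg/ml, Δ47 C-terminus, 6His), substrate RNA 5 μg/ml, UTP 2 μM with tritiated UTP and other NTPs 50 μM. IC50 derived from incorporated radiolabel in filter-trapped RNA relative to uninhibited reaction.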

| Structure (SMILES) | IC50 [1] [nM] | IC50 [2] [nM] |
| --- | --- | --- |
| CCC(F)(F)c1ccc(CNC(=O)[C@H]2CN(c3cnc(CN(C)C)cn3)CCN2S(=O)(=O)c2ccc(OC(F)(F)F)cc2)cc1 [Example 595, (R)-5′-dimethylaminomethyl-4-(4-trifluoromethoxy-benzenesulfonyl)-3,4,5,6-tetrahydro-2H-[1,2′]bipyrazinyl-3-carboxylic acid 4-(1,1-difluoro-propyl)-benzylamide] | < 100 | < 100 |
| CCC(F)(F)c1ccc(CNC(=O)[C@H]2CN(c3nc(NC(C)=O)ns3)CCN2S(=O)(=O)c2ccc(OC(F)(F)F)cc2)cc1 [Example 596, (R)-4-(3-acetylamino-[1,2,4]thiadiazol-5-yl)-1-(4-trifluoromethoxy-benzenesulfonyl)-piperazine-2-carboxylic acid 4-(1,1-difluoro-propyl)-benzylamide] | < 100 | < 100 |
| CC(C)(C)c1ccc(CNC(=O)[C@H]2CN(c3nc4cc[nH]c(=O)c4s3)CCN2S(=O)(=O)c2ccc(OC(F)(F)F)cc2)cc1 [Example 597, (R)-4-(4-oxo-4,5-dihydro-thiazolo[5,4-c]pyridin-2-yl)-1-(4-trifluoromethoxy-benzenesulfonyl)-piperazine-2-carboxylic acid 4-tert-butyl-benzylamide] | < 100 | < 100 |
| CC(=O)N1CCN(S(=O)(=O)c2ccc(OC(F)(F)F)cc2)[C@@H](C(=O)NCc2ccc(-c3ccccn3)s2)C1 [Example 598, (R)-4-acetyl-1-(4-trifluoromethoxy-benzenesulfonyl)-piperazine-2-carboxylic acid (5-pyridin-2-yl-thiophen-2-ylmethyl)-amide] | 100 to 1000 | 100 to 1000 |
| CC(=O)N1CCN(S(=O)(=O)c2ccc(OC(F)(F)F)cc2)[C@@H](C(=O)NCc2csc(-c3cccs3)n2)C1 [Example 599, (R)-4-acetyl-1-(4-trifluoromethoxy-benzenesulfonyl)-piperazine-2-carboxylic acid (2-thiophen-2-yl-thiazol-4-ylmethyl)-amide] | > 1000 | 100 to 1000 |
| CC(C)(C)c1ccc(CNC(=O)[C@H]2CN(c3nc4c(s3)CN(S(C)(=O)=O)CC4)CCN2S(=O)(=O)c2ccc(OC(F)(F)F)cc2)cc1 [Example 600, (R)-4-(5-methanesulfonyl-4,5,6,7-tetrahydro-thiazolo[5,4-c]pyridin-2-yl)-1-(4-trifluoromethoxy-benzenesulfonyl)-piperazine-2-carboxylic acid 4-tert-butyl-benzylamide] | < 100 | < 100 |
| CCNC(=O)N1CCc2nc(N3CCN(S(=O)(=O)c4ccc(OC(F)(F)F)cc4)[C@@H](C(=O)NCc4ccc(C(C)(C)C)cc4)C3)sc2C1 [Example 601, 2-[(R)-3-(4-tert-butyl-benzylcarbamoyl)-4-(4-trifluoromethoxy-benzenesulfonyl)-piperazin-1-yl]-6,7-dihydro-4H-thiazolo[5,4-c]pyridine-5-carboxylic acid ethylamide] | < 100 | < 100 |
| CC(C)(C)c1ccc(CNC(=O)[C@H]2CN(c3nc4nc[nH]c(=O)c4s3)CCN2S(=O)(=O)c2ccc(OC(F)(F)F)cc2)cc1 [Example 602, (R)-4-(7-oxo-6,7-dihydro-thiazolo[4,5-d]pyrimidin-2-yl)-1-(4-trifluoromethoxy-benzenesulfonyl)-piperazine-2-carboxylic acid 4-tert-butyl-benzylamide] | < 100 | < 100 |
| CC(C)(C)c1ccc(CNC(=O)[C@H]2CN(c3nc(CO)c(C(=O)O)s3)CCN2S(=O)(=O)c2ccc(OC(F)(F)F)cc2)cc1 [Example 603, 2-[(R)-3-(4-tert-butyl-benzylcarbamoyl)-4-(4-trifluoromethoxy-benzenesulfonyl)-piperazin-1-yl]-4-hydroxymethyl-thiazole-5-carboxylic acid] | 100 to 1000 | 100 to 1000 |
